# Reference: patent US20250243196A1, “CITRON KINASE INHIBITORS” (The Cleveland Clinic Foundation, priority 2021, published 2025)
# Read-outs that look alike come from different tables or passages of the source.
# Assays:
# [1] = tested on: NCI-60 human tumor cell line panel; experiment: NCI-60 human tumor cell line screen (GI50); assay type: cell-based
# CaMKIδ(h) = CaMKIδ(h) (Homo sapiens (Human), UniProt Q8IU85); experiment: KinaseProfiler panel; assay type: biochemical; parameters: dose or concentration left out as unconfirmed; settings: activity remaining
# CK1α(h) = CK1α(h) (Homo sapiens (Human), UniProt P48729); experiment: KinaseProfiler panel; assay type: biochemical; parameters: dose or concentration left out as unconfirmed; settings: activity remaining
# Chain of CK1α(h) (P48729 whole entry): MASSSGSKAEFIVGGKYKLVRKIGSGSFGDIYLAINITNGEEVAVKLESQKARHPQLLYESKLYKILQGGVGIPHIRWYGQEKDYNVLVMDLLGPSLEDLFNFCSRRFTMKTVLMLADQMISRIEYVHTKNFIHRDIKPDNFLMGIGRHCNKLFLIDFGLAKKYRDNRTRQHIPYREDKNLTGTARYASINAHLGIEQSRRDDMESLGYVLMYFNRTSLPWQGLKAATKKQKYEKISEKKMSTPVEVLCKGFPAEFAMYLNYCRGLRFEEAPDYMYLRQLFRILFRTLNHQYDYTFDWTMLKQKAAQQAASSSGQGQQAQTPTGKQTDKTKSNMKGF
# CK2α2(h) = CK2α2(h) (Homo sapiens (Human), UniProt P19784); experiment: KinaseProfiler panel; assay type: biochemical; parameters: dose or concentration left out as unconfirmed; settings: activity remaining
# Chain of CK2α2(h) (P19784 whole entry): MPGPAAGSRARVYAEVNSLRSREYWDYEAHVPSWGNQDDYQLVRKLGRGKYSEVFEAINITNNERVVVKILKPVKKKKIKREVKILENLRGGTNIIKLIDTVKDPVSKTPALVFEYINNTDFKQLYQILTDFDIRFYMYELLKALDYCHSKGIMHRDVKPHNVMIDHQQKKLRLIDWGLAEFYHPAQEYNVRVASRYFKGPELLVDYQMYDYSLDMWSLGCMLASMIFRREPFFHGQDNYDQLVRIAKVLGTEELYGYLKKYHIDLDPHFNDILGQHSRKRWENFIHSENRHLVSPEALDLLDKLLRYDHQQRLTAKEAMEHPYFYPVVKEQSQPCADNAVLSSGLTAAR
# GRK5(h) = GRK5(h) (Homo sapiens (Human), UniProt P34947); experiment: KinaseProfiler panel; assay type: biochemical; parameters: dose or concentration left out as unconfirmed; settings: activity remaining
# Chain of GRK5(h) (P34947 whole entry): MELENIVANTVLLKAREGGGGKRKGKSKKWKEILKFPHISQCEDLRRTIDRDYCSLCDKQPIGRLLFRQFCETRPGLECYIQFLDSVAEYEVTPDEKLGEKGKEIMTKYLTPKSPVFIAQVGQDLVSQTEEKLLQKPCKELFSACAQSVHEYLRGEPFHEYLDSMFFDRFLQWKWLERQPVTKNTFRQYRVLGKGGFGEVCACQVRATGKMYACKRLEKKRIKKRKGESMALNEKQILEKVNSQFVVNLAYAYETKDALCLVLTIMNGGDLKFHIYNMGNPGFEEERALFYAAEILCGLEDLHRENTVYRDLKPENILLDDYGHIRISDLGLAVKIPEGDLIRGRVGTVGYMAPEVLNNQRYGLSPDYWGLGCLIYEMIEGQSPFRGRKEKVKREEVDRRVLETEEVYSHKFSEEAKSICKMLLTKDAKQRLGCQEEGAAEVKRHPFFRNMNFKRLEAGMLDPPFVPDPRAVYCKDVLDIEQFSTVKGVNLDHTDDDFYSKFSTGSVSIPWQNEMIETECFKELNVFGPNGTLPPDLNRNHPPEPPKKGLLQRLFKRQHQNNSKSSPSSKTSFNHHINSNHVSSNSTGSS
# Hck(h) activated = Hck(h) activated (Homo sapiens (Human), UniProt P08631); experiment: KinaseProfiler panel; assay type: biochemical; parameters: dose or concentration left out as unconfirmed; settings: activity remaining
# Chain of Hck(h) activated (P08631 whole entry): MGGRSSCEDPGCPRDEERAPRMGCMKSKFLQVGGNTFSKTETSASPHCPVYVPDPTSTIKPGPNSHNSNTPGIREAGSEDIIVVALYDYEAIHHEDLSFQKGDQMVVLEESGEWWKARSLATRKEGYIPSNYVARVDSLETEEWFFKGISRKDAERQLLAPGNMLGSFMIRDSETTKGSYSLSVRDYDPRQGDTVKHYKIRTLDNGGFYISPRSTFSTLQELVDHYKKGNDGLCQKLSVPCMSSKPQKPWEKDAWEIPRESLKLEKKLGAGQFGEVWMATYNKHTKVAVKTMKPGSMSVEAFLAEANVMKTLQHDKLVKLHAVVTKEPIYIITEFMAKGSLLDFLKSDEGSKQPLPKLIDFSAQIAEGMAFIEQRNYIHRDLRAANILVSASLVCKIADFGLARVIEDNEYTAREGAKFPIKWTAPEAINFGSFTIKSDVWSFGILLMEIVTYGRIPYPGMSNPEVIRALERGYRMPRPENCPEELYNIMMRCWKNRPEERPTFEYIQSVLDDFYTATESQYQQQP
# MAK(h) = MAK(h) (Homo sapiens (Human), UniProt P20794); experiment: KinaseProfiler panel; assay type: biochemical; parameters: dose or concentration left out as unconfirmed; settings: activity remaining
# MuSK(h) = MuSK(h) (Homo sapiens (Human), UniProt O15146); experiment: KinaseProfiler panel; assay type: biochemical; parameters: dose or concentration left out as unconfirmed; settings: activity remaining
# NDR1(h) = NDR1(h) (Homo sapiens (Human), UniProt Q15208); experiment: KinaseProfiler panel; assay type: biochemical; parameters: dose or concentration left out as unconfirmed; settings: activity remaining
# Chain of NDR1(h) (Q15208 whole entry): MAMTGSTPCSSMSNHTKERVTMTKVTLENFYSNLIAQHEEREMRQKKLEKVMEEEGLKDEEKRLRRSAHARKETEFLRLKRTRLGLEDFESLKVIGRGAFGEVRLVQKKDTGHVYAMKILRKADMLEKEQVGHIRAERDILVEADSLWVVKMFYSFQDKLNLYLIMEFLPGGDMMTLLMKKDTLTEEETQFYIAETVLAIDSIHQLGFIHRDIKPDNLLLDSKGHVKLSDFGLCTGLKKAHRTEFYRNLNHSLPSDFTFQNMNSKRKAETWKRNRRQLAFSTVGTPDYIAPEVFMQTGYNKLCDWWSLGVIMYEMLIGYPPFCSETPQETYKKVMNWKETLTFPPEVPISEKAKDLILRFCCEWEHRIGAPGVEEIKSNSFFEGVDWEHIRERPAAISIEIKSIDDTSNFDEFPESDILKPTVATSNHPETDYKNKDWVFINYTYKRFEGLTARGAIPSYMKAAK
# Pim-2(h) = Pim-2(h) (Homo sapiens (Human), UniProt Q9P1W9); experiment: KinaseProfiler panel; assay type: biochemical; parameters: dose or concentration left out as unconfirmed; settings: activity remaining
# Chain of Pim-2(h) (Q9P1W9 whole entry): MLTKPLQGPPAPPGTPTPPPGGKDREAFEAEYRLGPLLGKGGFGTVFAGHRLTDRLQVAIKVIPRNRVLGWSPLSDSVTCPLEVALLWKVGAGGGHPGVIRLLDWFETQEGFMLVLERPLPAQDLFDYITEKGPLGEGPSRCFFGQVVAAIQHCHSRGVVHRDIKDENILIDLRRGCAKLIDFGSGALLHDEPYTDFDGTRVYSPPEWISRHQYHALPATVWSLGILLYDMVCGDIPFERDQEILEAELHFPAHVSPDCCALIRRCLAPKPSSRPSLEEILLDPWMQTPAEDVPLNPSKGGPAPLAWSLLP
# PKBα(h) = PKBα(h) (Homo sapiens (Human), UniProt P31749); experiment: KinaseProfiler panel; assay type: biochemical; parameters: dose or concentration left out as unconfirmed; settings: activity remaining
# Chain of PKBα(h) (P31749 whole entry): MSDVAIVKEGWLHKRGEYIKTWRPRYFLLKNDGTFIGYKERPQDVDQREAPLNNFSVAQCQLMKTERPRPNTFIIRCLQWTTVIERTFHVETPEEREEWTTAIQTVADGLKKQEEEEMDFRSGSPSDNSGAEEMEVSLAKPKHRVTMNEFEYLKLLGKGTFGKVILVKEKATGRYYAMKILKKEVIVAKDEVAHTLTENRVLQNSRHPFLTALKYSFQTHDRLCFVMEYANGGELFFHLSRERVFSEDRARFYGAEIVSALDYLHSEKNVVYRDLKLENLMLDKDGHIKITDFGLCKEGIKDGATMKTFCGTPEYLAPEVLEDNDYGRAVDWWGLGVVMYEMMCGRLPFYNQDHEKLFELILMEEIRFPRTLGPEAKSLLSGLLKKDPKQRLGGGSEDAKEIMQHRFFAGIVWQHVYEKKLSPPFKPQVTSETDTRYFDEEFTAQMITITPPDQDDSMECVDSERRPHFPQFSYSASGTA
# TNIK(h) = TNIK(h) (Homo sapiens (Human), UniProt Q9UKE5); experiment: KinaseProfiler panel; assay type: biochemical; settings: activity remaining
# Chain of TNIK(h) (Q9UKE5 whole entry): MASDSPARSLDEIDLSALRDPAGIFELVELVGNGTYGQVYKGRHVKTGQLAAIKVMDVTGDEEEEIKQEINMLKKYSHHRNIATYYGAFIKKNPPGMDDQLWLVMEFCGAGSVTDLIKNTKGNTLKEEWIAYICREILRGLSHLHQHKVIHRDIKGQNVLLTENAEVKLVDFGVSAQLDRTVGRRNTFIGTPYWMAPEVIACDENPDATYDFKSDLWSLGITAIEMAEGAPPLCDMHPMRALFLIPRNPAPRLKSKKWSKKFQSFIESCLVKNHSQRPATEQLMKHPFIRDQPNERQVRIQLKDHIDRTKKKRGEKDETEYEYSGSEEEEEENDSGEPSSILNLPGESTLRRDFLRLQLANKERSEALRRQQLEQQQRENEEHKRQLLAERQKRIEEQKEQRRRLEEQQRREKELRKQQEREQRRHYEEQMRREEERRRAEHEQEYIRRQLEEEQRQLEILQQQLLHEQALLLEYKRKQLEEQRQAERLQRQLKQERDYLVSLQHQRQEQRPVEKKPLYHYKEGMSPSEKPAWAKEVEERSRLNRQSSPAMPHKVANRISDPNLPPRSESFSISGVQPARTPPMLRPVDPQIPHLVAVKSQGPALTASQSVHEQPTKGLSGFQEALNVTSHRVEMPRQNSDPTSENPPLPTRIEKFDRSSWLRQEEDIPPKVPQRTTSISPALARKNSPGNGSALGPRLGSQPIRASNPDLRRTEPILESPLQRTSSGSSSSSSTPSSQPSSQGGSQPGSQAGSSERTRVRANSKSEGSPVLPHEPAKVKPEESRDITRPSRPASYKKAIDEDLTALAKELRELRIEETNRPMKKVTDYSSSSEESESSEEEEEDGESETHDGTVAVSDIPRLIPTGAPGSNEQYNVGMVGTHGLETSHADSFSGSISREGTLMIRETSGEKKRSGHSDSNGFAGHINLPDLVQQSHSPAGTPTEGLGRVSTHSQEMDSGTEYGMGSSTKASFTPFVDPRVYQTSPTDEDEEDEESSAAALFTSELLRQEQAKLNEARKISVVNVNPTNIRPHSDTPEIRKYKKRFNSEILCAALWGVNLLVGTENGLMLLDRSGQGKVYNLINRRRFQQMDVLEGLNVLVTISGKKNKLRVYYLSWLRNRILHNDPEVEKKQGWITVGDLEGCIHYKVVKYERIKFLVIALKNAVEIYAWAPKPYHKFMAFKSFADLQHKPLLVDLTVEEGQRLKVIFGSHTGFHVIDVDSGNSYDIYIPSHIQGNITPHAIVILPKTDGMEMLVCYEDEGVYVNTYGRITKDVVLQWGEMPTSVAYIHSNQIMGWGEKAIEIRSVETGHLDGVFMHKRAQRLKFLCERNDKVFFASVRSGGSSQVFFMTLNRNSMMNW
# TRB2(h) = TRB2(h) (Homo sapiens (Human), UniProt Q92519); experiment: KinaseProfiler panel; assay type: biochemical; parameters: dose or concentration left out as unconfirmed; settings: activity remaining
# Chain of TRB2(h) (Q92519 whole entry): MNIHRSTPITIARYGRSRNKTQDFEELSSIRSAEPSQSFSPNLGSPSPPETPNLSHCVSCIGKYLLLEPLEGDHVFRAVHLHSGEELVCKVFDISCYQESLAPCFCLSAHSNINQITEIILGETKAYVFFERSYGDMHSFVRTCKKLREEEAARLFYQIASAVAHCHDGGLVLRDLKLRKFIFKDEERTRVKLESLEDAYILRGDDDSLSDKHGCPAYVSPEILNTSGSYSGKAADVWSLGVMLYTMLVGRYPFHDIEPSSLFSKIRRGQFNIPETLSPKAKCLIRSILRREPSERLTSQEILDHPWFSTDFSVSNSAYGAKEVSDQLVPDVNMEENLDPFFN
smiles,measurement,setting,value
"Cc1cc2c(-c3ccc(NC(=O)[C@H](N)CC(C)(C)C)cc3C)ccnc2[nH]1 [Compound F-90, (2R)-2-Amino-4,4-dimethyl-N-[3-methyl-4-(2-methyl-1H-pyrrolo[2,3-b]pyridin-4-yl)phenyl]pentanamide]",GI50,"[1]; Homo sapiens, SK-OV-3, SK-OV-3, Ovarian Cancer, read-out: GI50",12.4 µM
same,GI50,"[1]; Homo sapiens, SN12C, Renal Cancer, read-out: GI50",11.1 µM
same,GI50,"[1]; Homo sapiens, SNB-19, SNB-19, CNS Cancer, read-out: GI50",11.3 µM
same,GI50,"[1]; Homo sapiens, SNB-75, SNB-75, CNS Cancer, read-out: GI50",4.7 µM
same,GI50,"[1]; Homo sapiens, SR, Leukemia, read-out: GI50",2.1 µM
same,GI50,"[1]; Homo sapiens, SW-620, SW-620, Colon Cancer, read-out: GI50",5.6 µM
same,GI50,"[1]; Homo sapiens, T47D, T-47D, Breast Cancer, read-out: GI50",6.7 µM
same,GI50,"[1]; Homo sapiens, TK-10, TK-10, Renal Cancer, read-out: GI50",12.6 µM
same,GI50,"[1]; Homo sapiens, U-251, U251, CNS Cancer, read-out: GI50",6 µM
same,GI50,"[1]; Homo sapiens, UACC-62, UACC-62, Melanoma, read-out: GI50",8.6 µM
same,GI50,"[1]; Homo sapiens, UACC-257, UACC-257, Melanoma, read-out: GI50",10.5 µM
same,GI50,"[1]; Homo sapiens, UO-31, UO-31, Renal Cancer, read-out: GI50",4.6 µM
same,GI50,"[1]; IGROV1, Ovarian Cancer",−4.915 Log(M)
same,GI50,"[1]; K-562, Leukemia",−5.551 Log(M)
same,GI50,"[1]; KM12, Colon Cancer",−5.215 Log(M)
same,GI50,"[1]; LOX IMVI, Melanoma",−5.211 Log(M)
same,GI50,"[1]; M14, Melanoma",−4.959 Log(M)
same,GI50,"[1]; MALME-3M, Melanoma",−4.992 Log(M)
same,GI50,"[1]; MCF7, Breast Cancer",−5.256 Log(M)
same,GI50,"[1]; MDA-MB-231/ATCC, Breast Cancer",−5.129 Log(M)
same,GI50,"[1]; MDA-MB-435, Breast Cancer",−5.155 Log(M)
same,GI50,"[1]; MDA-MB-468, Breast Cancer",−5.564 Log(M)
same,GI50,"[1]; MOLT-4, Leukemia",−5.329 Log(M)
same,GI50,"[1]; NCI-H23, Non-Small Cell Lung Cancer",−4.915 Log(M)
same,GI50,"[1]; NCI-H226, Non-Small Cell Lung Cancer",−4.971 Log(M)
same,GI50,"[1]; NCI-H322M, Non-Small Cell Lung Cancer",−4.845 Log(M)
same,GI50,"[1]; NCI-H460, Non-Small Cell Lung Cancer",−5.245 Log(M)
same,GI50,"[1]; NCI-H522, Non-Small Cell Lung Cancer",−4.887 Log(M)
same,GI50,"[1]; NCI/ADR-RES, Breast Cancer",−4.873 Log(M)
same,GI50,"[1]; OVCAR-3, Ovarian Cancer",−4.937 Log(M)
same,GI50,"[1]; OVCAR-4, Ovarian Cancer",−5.158 Log(M)
same,GI50,"[1]; OVCAR-5, Ovarian Cancer",−4.982 Log(M)
same,GI50,"[1]; OVCAR-8, Ovarian Cancer",−4.867 Log(M)
same,GI50,"[1]; PC-3, Prostate Cancer",−5.102 Log(M)
same,GI50,"[1]; RPMI-8226, Leukemia",−5.557 Log(M)
same,GI50,"[1]; RXF 393, Renal Cancer",−5.434 Log(M)
same,GI50,"[1]; SF-268, CNS Cancer",−4.953 Log(M)
same,GI50,"[1]; SF-295, CNS Cancer",−5.079 Log(M)
same,GI50,"[1]; SF-539, CNS Cancer",−5.098 Log(M)
same,GI50,"[1]; SK-MEL-2, Melanoma",−4.853 Log(M)
same,GI50,"[1]; SK-MEL-5, Melanoma",−5.609 Log(M)
same,GI50,"[1]; SK-MEL-28, Melanoma",−5.072 Log(M)
same,GI50,"[1]; SK-OV-3, Ovarian Cancer",−4.905 Log(M)
same,GI50,"[1]; SN12C, Renal Cancer",−4.953 Log(M)
same,GI50,"[1]; SNB-19, CNS Cancer",−4.945 Log(M)
same,GI50,"[1]; SNB-75, CNS Cancer",−5.326 Log(M)
same,GI50,"[1]; SR, Leukemia",−5.682 Log(M)
same,GI50,"[1]; SW-620, Colon Cancer",−5.250 Log(M)
same,GI50,"[1]; T-47D, Breast Cancer",−5.174 Log(M)
same,GI50,"[1]; TK-10, Renal Cancer",−4.901 Log(M)
same,GI50,"[1]; U251, CNS Cancer",−5.222 Log(M)
same,GI50,"[1]; UACC-62, Melanoma",−5.066 Log(M)
same,GI50,"[1]; UACC-257, Melanoma",−4.977 Log(M)
same,GI50,"[1]; UO-31, Renal Cancer",−5.335 Log(M)
same,% Activity,CaMKIδ(h),89%
same,% Activity,CK1α(h),97%
same,% Activity,CK2α2(h),115%
same,% Activity,GRK5(h),97%
same,% Activity,Hck(h) activated,111%
same,% Activity,MAK(h),120%
same,% Activity,MuSK(h),96%
same,% Activity,NDR1(h),100%
same,% Activity,Pim-2(h),117%
same,% Activity,PKBα(h),87%
same,% Activity,TNIK(h),93%
same,% Activity,TRB2(h),104%
